According to ChEMBL document CHEMBL1130809, “Anti-inflammatory/antiarthritic ketonic bisphosphonic acid esters” (1998):

Assays:
Type in all cases: functional
Conditions in all cases: route oral
Mus musculus [1] = assay: Inhibition of delayed type hypersensitivity granuloma in mice following 10 mg/kg p.o. administration.
Mus musculus [2] = assay: Inhibition of antigen-induced arthritis in mice following 10 mg/kg p.o. administration.
Mus musculus [3] = assay: Compound was tested for antiarthritic activity in murine model of antigen-induced arthritis. upon 10 mg/kg peroral administration
Mus musculus [4] = assay: Compound was tested for anti-inflammatory activity in delayed type hypersensitivity granuloma upon 100 mg/kg peroral administration
Mus musculus [5] = assay: Compound was tested for antiarthritic activity in murine model of antigen-induced arthritis upon 100 mg/kg peroral administration
Mus musculus [6] = assay: Compound was tested for antiarthritic activity in murine model of antigen-induced arthritis upon 10 mg/kg peroral administration

CCOP(=O)(OCC)C(CCCc1ccccc1)P(=O)(OCC)OCC
inhibition in vivo at 10 mg/kg (Mus musculus [1]): 44%
inhibition in vivo at 10 mg/kg (Mus musculus [2]): 11%

CCOP(=O)(OCC)C(CCC(=O)c1ccc(NC(C)=O)cc1)P(=O)(OCC)OCC
inhibition in vivo at 10 mg/kg (Mus musculus [1]): 75%
inhibition in vivo at 10 mg/kg (Mus musculus [2]): 10%

CCOP(=O)(OCC)C(CC(=O)c1ccccc1)P(=O)(OCC)OCC
inhibition in vivo at 10 mg/kg (Mus musculus [1]): 7%
inhibition in vivo at 10 mg/kg (Mus musculus [2]): 11%

CCOP(=O)(OCC)C(CCC(=O)c1ccccn1)P(=O)(OCC)OCC
inhibition in vivo at 10 mg/kg (Mus musculus [1]): 43%
inhibition in vivo at 10 mg/kg (Mus musculus [2]): 47%

CCOP(=O)(OCC)C(CCC(=O)c1cccc(NS(C)(=O)=O)c1)P(=O)(OCC)OCC
inhibition in vivo at 10 mg/kg (Mus musculus [1]): 37%
inhibition in vivo at 10 mg/kg (Mus musculus [2]): 33%

CCOC(=O)Nc1ccc(C(=O)CCC(P(=O)(OCC)OCC)P(=O)(OCC)OCC)cc1
inhibition in vivo at 10 mg/kg (Mus musculus [1]): 43%
inhibition in vivo at 10 mg/kg (Mus musculus [2]): 18%

CC1(C)COP(=O)(C(CCC(=O)c2cccnc2)P2(=O)OCC(C)(C)CO2)OC1
ED30 (Mus musculus [3]): 0.4 mg/kg
inhibition in vivo at 10 mg/kg (Mus musculus [1]): 38%
inhibition in vivo at 10 mg/kg (Mus musculus [2]): 28%

CC1(C)COP(=O)(C(CCC(=O)c2ccoc2)P2(=O)OCC(C)(C)CO2)OC1
inhibition in vivo at 10 mg/kg (Mus musculus [1]): 45%
inhibition in vivo at 10 mg/kg (Mus musculus [2]): 16%

CCOP(=O)(OCC)C(CCC(=O)c1ccco1)P(=O)(OCC)OCC
inhibition in vivo at 10 mg/kg (Mus musculus [1]): 23%
inhibition in vivo at 10 mg/kg (Mus musculus [2]): 11%

O=P(O)(O)C(Cl)(Cl)P(=O)(O)O [CLODRONIC ACID]
ED30 (Mus musculus [4]): 30 mg/kg
inhibition in vivo at 100 mg/kg (Mus musculus [4]): 48%
ED30 (Mus musculus [5]): 50 mg/kg
inhibition in vivo at 100 mg/kg (Mus musculus [5]): 42%

CCOP(=O)(OCC)C(CCC(=O)c1cccc(F)c1)P(=O)(OCC)OCC
ED30 (Mus musculus [3]): 0.1 mg/kg
inhibition in vivo at 10 mg/kg (Mus musculus [1]): 44%
inhibition in vivo at 10 mg/kg (Mus musculus [2]): 40%

CCOP(=O)(OCC)C(CCC(=O)c1cccnc1)P(=O)(OCC)OCC
inhibition in vivo at 10 mg/kg (Mus musculus [1]): 51%
inhibition in vivo at 10 mg/kg (Mus musculus [2]): 61%

CCOP(=O)(OCC)C(CCC(=O)c1cccc(Cl)c1)P(=O)(OCC)OCC
inhibition in vivo at 10 mg/kg (Mus musculus [1]): 10%
inhibition in vivo at 10 mg/kg (Mus musculus [2]): 26%

CCOP(=O)(OCC)C(CCC(=O)c1ccccc1)P(=O)(OCC)OCC
inhibition in vivo at 10 mg/kg (Mus musculus [1]): 51%
inhibition in vivo at 10 mg/kg (Mus musculus [2]): 10%

CCOP(=O)(OCC)C(CC(C(=O)c1ccccc1)c1ccccc1)P(=O)(OCC)OCC (stereo not given)
inhibition in vivo at 10 mg/kg (Mus musculus [1]): 65%
ED30 (Mus musculus [6]): 50 mg/kg
inhibition in vivo at 10 mg/kg (Mus musculus [6]): 54%

CCOP(=O)(OCC)C(CCC(O)c1ccccc1)P(=O)(OCC)OCC (stereo not given)
inhibition in vivo at 10 mg/kg (Mus musculus [1]): 39%

CCOP(=O)(OCC)C(CCC(=O)c1cccc(I)c1)P(=O)(OCC)OCC
inhibition in vivo at 10 mg/kg (Mus musculus [1]): 5%

CC1(C)COP(=O)(C(CCC(=O)c2cccc(F)c2)P2(=O)OCC(C)(C)CO2)OC1
ED30 (Mus musculus [3]): 0.01 mg/kg
inhibition in vivo at 10 mg/kg (Mus musculus [1]): < 57%
inhibition in vivo at 10 mg/kg (Mus musculus [2]): 48%

CCOP(=O)(OCC)C(CCC(=O)c1ccc(NC(=O)c2ccccc2)cc1)P(=O)(OCC)OCC
inhibition in vivo at 10 mg/kg (Mus musculus [1]): 63%
inhibition in vivo at 10 mg/kg (Mus musculus [2]): 4%

CC1(C)COP(=O)(C(CCC(=O)c2ccccc2)P2(=O)OCC(C)(C)CO2)OC1
inhibition in vivo at 10 mg/kg (Mus musculus [1]): 36%

CCOP(=O)(OCC)C(CCC(=O)c1cccc(Br)c1)P(=O)(OCC)OCC
inhibition in vivo at 10 mg/kg (Mus musculus [1]): 59%
inhibition in vivo at 10 mg/kg (Mus musculus [2]): 22%
